Experimental findings from patent US20230219986A1, “NOVEL AMINOPYRIMIDINE EGFR INHIBITOR” (QILU PHARMACEUTICAL CO., LTD., priority 2020, published 2023) are described below.

Experiment [1] has as its target T1, L858R/T790M/C797S triple mutant EGFR (Homo sapiens, UniProt P00533, C797S/L858R/T790M).
T1 construct: purchased Signalchem
Kind of experiment: Enzymology experiment in vitro (HTRF/FRET kinase activity), L858R/T790M/C797S triple mutant EGFR. In kind it is biochemical. The note with it: HTRF KinEASE-TK, read-out: EGFR (L858R/T790M/C797S) IC50. The method in brief:
(§1)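 Kinase reaction run 40 min at room temperature with peptide and ATP after a 10 min compound–enzyme preincubation. Phosphorylation read as HTRF signal after 1 h with Eu³⁺ antibody, XL665-streptavidin and EDTA (Cisbio KinEASE-TK).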
In general terms: Time-resolved FRET reads energy transfer from a long-lived donor to a nearby acceptor.

For experiment [2], the system named is EGFR wild-type cell line A431. The experiment can be described thus: Cell proliferation inhibition experiment (CellTiter-Glo), A431. In kind it is cell-based. The note with it: Homo sapiens, A-431, 72 h, A431 cells, Cell Titer-Glo, read-out: A431 EGFR WT IC50. The method in brief:
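Luminescent CellTiter-Glo readout, 30 min at room temperature, after 72 h compound exposure at 37° C., 5% CO2 with 0.1% DMSO final. EGFR wild-type A431 cells were seeded at 800 per well and grown 24 h before dosing. IC50 derived from the dose-response.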

Another experiment has as its target T2, wild-type EGFR (Homo sapiens, UniProt P00533).
T2 construct: purchased Signalchem
Kind of experiment: Enzymology experiment in vitro (HTRF/FRET kinase activity), wild-type EGFR. The note with it: HTRF KinEASE-TK, read-out: EGFR (WT) IC50. Format: biochemical. The method in brief: as §1

For experiment [3], the target named is Ba/F3 L858R/T790M/C797S EGFR triple mutant cell line (Homo sapiens, UniProt P00533, T790M/C797S/L858R, cells depend on it). The experiment can be described thus: Cell proliferation inhibition experiment (CellTiter-Glo), Ba/F3 L858R/T790M/C797S. In kind it is cell-based. As to conditions: 72 hours, Cell Titer-Glo, read-out: Ba/F3 (L858R/T790M/C797S) IC50. Background: Cellular ATP, detected with luciferase, serves as a proxy for viable cell number.
Sequence of Ba/F3 L858R/T790M/C797S EGFR triple mutant cell line (P00533 whole entry T790M/C797S/L858R): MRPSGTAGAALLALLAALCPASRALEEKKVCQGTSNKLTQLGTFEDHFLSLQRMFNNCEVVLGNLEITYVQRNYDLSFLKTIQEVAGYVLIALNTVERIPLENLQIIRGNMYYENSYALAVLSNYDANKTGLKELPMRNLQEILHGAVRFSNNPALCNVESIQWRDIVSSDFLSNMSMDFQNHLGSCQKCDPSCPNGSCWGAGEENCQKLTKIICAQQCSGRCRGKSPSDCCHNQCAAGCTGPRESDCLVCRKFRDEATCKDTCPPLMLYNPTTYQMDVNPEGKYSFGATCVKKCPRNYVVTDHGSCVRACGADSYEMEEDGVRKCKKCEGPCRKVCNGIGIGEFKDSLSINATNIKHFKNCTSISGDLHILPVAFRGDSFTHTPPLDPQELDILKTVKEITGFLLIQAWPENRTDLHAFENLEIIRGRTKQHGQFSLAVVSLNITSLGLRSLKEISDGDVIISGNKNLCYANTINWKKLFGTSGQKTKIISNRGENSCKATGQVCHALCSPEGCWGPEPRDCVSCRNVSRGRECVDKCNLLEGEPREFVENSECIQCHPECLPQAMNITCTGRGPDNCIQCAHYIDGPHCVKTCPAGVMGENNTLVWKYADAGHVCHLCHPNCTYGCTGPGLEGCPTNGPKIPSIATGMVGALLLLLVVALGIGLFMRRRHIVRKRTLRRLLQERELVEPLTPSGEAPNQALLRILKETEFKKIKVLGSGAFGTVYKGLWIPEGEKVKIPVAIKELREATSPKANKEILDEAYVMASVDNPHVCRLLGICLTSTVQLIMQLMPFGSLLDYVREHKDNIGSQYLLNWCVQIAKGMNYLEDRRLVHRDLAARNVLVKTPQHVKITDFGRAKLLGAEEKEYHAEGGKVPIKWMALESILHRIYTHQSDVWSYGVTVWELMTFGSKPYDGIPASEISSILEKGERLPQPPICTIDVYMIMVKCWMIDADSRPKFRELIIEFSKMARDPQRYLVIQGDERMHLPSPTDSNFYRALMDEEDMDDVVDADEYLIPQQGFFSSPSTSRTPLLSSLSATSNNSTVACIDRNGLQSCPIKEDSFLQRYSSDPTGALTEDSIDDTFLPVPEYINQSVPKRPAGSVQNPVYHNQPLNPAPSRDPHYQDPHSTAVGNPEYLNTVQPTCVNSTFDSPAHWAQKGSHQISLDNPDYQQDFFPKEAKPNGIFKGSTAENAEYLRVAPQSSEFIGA

The target of experiment [4] is Ba/F3 De119/T790M/C797S EGFR triple mutant cell line (Homo sapiens, UniProt P00533, T790M/C797S, cells depend on it, form not given). The experiment can be described thus: Cell proliferation inhibition experiment (CellTiter-Glo), Ba/F3 De119/T790M/C797S. In kind it is cell-based. The note with it: Ba/F3 Del19/T790M/C797S EGFR triple mutant cells, 72 hours, Cell Titer-Glo; read-out: Ba/F3 (Del19/T790M/C797S) IC50.
Sequence of Ba/F3 De119/T790M/C797S EGFR triple mutant cell line (P00533 with tags, fused parts or gaps DEL746-750/T790M/C797S, form open): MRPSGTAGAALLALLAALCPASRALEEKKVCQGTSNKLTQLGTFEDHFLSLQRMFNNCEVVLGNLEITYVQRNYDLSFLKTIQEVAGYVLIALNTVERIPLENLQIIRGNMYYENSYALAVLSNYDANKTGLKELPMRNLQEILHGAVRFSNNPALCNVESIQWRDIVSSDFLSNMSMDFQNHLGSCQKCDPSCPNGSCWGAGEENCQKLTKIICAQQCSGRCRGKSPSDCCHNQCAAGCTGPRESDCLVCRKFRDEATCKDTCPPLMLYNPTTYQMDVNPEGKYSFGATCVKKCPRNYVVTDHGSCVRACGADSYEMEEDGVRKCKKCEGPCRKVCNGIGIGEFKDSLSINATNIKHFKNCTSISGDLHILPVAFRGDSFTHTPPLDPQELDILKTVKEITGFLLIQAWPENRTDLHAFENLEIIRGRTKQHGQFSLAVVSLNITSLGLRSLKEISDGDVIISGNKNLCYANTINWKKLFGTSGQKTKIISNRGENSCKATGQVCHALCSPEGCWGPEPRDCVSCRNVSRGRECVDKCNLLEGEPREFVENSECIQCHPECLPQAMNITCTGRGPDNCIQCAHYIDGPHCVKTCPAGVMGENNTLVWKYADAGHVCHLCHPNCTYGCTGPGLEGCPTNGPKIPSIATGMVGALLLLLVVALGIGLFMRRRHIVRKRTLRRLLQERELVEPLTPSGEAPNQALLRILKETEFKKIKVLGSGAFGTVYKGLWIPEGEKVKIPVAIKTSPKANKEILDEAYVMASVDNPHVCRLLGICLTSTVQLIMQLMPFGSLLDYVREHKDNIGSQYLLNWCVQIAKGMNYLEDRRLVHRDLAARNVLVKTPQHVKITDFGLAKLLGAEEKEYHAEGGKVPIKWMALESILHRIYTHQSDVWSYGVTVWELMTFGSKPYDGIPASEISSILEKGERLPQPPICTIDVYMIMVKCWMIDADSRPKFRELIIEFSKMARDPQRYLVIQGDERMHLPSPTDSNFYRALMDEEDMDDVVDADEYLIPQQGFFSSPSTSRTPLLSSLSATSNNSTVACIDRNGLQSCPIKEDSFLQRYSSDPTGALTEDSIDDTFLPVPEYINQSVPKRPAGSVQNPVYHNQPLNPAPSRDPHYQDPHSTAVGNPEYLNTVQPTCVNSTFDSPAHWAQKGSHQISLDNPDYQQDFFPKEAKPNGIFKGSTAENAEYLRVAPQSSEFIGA

T1 sequence (P00533 25-1210 T790M/C797S/L858R): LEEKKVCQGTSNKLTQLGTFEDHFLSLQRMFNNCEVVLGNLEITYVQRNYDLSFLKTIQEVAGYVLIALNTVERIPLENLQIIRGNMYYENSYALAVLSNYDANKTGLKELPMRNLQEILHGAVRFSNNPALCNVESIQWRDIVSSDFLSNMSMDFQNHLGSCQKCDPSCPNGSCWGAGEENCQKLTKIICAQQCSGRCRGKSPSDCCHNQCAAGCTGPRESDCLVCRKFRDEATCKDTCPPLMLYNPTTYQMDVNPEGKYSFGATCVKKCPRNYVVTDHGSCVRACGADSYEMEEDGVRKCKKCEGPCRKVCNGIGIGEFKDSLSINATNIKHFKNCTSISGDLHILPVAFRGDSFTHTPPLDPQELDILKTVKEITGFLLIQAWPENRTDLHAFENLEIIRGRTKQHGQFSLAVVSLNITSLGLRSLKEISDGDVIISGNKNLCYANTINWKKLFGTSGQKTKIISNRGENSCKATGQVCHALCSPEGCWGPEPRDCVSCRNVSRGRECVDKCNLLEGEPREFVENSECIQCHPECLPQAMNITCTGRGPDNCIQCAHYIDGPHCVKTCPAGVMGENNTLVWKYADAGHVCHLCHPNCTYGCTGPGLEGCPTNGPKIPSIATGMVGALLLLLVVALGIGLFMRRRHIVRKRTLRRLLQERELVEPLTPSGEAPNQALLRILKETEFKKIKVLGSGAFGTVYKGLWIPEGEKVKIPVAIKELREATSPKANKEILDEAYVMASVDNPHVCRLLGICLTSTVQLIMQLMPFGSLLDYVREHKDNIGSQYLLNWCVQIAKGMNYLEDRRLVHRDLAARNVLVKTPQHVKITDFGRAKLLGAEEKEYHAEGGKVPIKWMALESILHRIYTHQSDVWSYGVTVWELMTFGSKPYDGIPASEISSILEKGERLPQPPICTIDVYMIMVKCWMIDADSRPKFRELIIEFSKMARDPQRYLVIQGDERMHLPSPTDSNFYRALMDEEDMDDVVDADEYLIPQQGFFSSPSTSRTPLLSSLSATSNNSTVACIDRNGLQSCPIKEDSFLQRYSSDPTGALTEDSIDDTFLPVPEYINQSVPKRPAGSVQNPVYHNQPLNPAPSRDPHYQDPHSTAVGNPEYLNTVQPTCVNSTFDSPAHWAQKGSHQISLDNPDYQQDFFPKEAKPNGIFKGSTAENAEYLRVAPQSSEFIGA
T2 sequence (P00533 25-1210): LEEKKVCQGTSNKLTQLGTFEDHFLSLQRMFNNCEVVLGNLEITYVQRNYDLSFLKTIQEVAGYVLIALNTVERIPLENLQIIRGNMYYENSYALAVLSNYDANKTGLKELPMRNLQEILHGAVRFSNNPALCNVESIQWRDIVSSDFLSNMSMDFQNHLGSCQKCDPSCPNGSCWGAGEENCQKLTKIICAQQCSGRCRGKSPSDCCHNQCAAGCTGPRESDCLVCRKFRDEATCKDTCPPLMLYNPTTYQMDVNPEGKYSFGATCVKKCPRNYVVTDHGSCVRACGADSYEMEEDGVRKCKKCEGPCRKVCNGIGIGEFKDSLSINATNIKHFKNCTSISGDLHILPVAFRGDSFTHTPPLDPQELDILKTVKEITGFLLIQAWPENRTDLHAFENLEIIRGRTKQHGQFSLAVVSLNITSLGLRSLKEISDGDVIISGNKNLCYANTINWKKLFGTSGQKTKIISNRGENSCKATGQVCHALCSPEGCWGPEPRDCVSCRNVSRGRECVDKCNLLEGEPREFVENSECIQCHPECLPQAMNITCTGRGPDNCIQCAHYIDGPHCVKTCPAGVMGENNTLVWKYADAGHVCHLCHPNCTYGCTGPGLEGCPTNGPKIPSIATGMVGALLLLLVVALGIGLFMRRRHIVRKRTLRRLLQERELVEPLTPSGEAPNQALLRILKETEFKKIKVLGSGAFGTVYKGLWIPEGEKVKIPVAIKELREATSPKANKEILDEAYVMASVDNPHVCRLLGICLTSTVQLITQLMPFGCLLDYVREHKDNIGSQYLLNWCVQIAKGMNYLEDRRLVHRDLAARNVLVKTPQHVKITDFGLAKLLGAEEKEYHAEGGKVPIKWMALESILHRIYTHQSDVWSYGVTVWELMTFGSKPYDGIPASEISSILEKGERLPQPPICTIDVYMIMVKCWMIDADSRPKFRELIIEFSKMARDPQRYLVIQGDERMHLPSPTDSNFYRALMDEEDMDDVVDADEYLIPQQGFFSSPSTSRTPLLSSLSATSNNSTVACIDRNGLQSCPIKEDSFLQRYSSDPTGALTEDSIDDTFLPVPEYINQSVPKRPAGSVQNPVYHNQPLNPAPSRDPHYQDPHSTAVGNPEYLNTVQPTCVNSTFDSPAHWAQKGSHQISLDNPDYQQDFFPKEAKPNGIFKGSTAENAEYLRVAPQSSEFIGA

Take `[2H]C([2H])([2H])OCCN1CCN(c2cc(OC)c(Nc3ncc(Br)c(Nc4ccc5nccnc5c4P(C)(C)=O)n3)cc2-c2cnn(C)c2)CC1` [compound 181]: the results for the IC50 (in experiment [1]; in experiment [2]; at wild-type EGFR) were 0.16 nM, 88.9 nM and 3.53 nM, respectively. In addition, the figures for the GI50 in experiment [3] and in experiment [4] were 9.67 nM and 3.52 nM, respectively.
In the same order, the values of `COc1cc(N2CCOC(COC(C)C)C2)c(-c2cnn(C)c2)cc1Nc1ncc(Br)c(Nc2ccc3nccnc3c2P(C)(C)=O)n1` (stereo not shown) [compound 182] are 0.4 nM, 101 nM, 8.49 nM, 4.43 nM and 1.71 nM.
In the case of `COc1cc(N2CCC3(CCN(C)CC3)CC2)c(-c2cnn(C)c2)cc1Nc1ncc(Br)c(Nc2ccccc2N(C)S(=O)(=O)C2CC2)n1` [compound 183, N-(2-((5-Bromo-2-((2-methoxy-5-(1-methyl-1H-pyrazol-4-yl)-4-)(9-methyl-3,9-diazaspiro[5.5]undecan-3-yl)phenyl)amino)pyrimidin-4-yl)amino)phenyl-N-methylcyclopropanesulfonamide], the IC50 in experiment [1] is 1.12 nM; in experiment [2] it was 246 nM; at wild-type EGFR, 12.2 nM. Moreover, the GI50 in experiment [3] is 27 nM; in experiment [4] it was 14.4 nM.
With `COc1cc(N2CCN(C3(C)COC3)CC2)c(-c2cnn(C)c2)cc1Nc1ncc(Br)c(Nc2ccc3nccnc3c2P(C)(C)=O)n1` [compound 184], the IC50 was 0.24 nM in experiment [1], 218 nM in experiment [2] and 2.23 nM on wild-type EGFR. Moreover, the values for the GI50 in experiment [3] and in experiment [4] were 5.67 nM and 2.28 nM, respectively.
Regarding `COc1cc(N2CCC(N3CC[C@H](OC)[C@H](F)C3)CC2)c(-c2cnn(C)c2)cc1Nc1ncc(Br)c(Nc2ccc3nccnc3c2P(C)(C)=O)n1` [compound 185], the IC50 in experiment [1] was determined as 0.36 nM; in experiment [2], 127 nM; on wild-type EGFR, 2.42 nM. Besides, the figures for the GI50 in experiment [3] and in experiment [4] were 4.02 nM and 1.77 nM, respectively.
For the molecule `COc1cc(N2CCC(N3CCN(CC(F)F)CC3)CC2)c(-c2cnn(C)c2)cc1Nc1ncc(Br)c(Nc2ccc3nccnc3c2P(C)(C)=O)n1` [compound 186], the IC50 in experiment [1] came out at 0.37 nM; in experiment [2], 62 nM; on wild-type EGFR, 1.19 nM. The GI50 was 3.47 nM in experiment [3] and 1.39 nM in experiment [4].
For `COc1cc(N2CC[C@H](OC)[C@H](F)C2)c(-c2cnn(C)c2)cc1Nc1ncc(Br)c(Nc2ccc3nccnc3c2P(C)(C)=O)n1` [compound 187], the IC50 in experiment [1] amounted to 0.04 nM; in experiment [2], 245 nM; on wild-type EGFR it was 5.73 nM. Also, the GI50 turned out to be 8.73 nM in experiment [3] and 2.11 nM in experiment [4].
The corresponding values for `COc1cc(N2CCC(C)(OC)CC2)c(-c2cnn(C)c2)cc1Nc1ncc(Br)c(Nc2ccc3nccnc3c2P(C)(C)=O)n1` [compound 188] are 0.43 nM, 56.6 nM, 5.62 nM, 0.87 nM and 0.61 nM.
In the same order, the values of `COc1cc(N2CCC(N3CCN(C)CC3)C(F)C2)c(-c2cnn(C)c2)cc1Nc1ncc(Br)c(Nc2ccc3nccnc3c2P(C)(C)=O)n1` (stereo not shown) [compound 189] are 0.16 nM, 128 nM, 1.08 nM, 23.6 nM and 9.18 nM.
The corresponding values for `COc1cc(N2CCC(N3CCN(C)CC3)CC2)c(-c2cnn(C)c2)cc1Nc1ncc(Br)c(Nc2ccccc2N(C)S(=O)(=O)C2CC2)n1` [compound 190] are 0.53 nM, 194 nM, 4.37 nM, 8.69 nM and 4.16 nM.
With `COc1cc(N2CCN(CCN3CCOCC3)CC2)c(-c2cnn(C)c2)cc1Nc1ncc(Br)c(Nc2ccc3nccnc3c2P(C)(C)=O)n1` [compound 191], the IC50 in experiment [1] was 0.23 nM; in experiment [2] it was 70 nM; on wild-type EGFR, 2.44 nM. Also, the GI50 in experiment [3] stood at 11.4 nM; in experiment [4], 3.47 nM.
